Measurements taken from patent US20160017054A1, “Spermidine/Spermine N1 - Acetyltransferase Antibodies As Anti-Cancer Drug Compounds” (BIOMARK TECHNOLOGIES INC., priority 2013, published 2016).

Test system: human tumor cell lines U2-OS, HeLa, Malme-3M, PC-3 and HEK293
Assay: Relative cell viability (percent confluency) during incubation with spermidine
Format: cell-based
Details: spermidine 22 μM to 550 μM

SMILES: NCCCCNCCCN [spermidine, Spermidine]
- relative cell viability, expressed as percent confluency (SSAT non-expressing cell lines (U2-OS and HeLa)): highest
- relative cell viability, expressed as percent confluency (SSAT over-expressing cell lines (Malme-M3 and PC-3)): lowest
